Experimental data from patent US6194450A, “Polyaromatic heterocyclic compounds and pharmaceutical compositions comprised thereof” (Centre International de Recherches Dermatologiques Galderma, priority 1995, dated 2001).

Experiments:
RARγ = biological target: T1, RARγ (Homo sapiens, UniProt P13631); assay: RAR Transactivation, RARγ (HeLa cells cotransfected with human RAR expression vector and TREpp-tk-CAT reporter); format: cell-based; settings: concentration eliciting 50% of the maximum CAT activity
T1 construct: expressed in transfected cells; host or cells: HeLa
T1 sequence (P13631 1-454): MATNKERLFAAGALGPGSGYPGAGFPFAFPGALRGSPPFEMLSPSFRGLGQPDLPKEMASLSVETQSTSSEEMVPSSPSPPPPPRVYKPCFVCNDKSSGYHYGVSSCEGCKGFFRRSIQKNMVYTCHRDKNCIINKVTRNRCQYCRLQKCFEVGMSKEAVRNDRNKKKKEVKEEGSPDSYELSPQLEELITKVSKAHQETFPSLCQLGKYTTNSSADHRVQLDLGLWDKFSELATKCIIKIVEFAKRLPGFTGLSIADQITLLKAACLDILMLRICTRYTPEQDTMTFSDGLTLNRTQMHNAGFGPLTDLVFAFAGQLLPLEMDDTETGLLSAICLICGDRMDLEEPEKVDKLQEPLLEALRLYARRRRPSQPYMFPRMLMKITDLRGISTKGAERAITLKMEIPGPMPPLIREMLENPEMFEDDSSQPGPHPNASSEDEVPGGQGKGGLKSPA
Experimental: (§1) (b) This test was carried out as described in the publication: Bernard B. A., Bernardon J. M., Delescluse C., Martin C., Lenoir M. C., Maignan J., Carpentier B., Pilgrim W. R., Reichert U. and Shroot B., Biochem. Biophys. […] HeLa cells were cotransfected with expression vectors coding for human RARs and the reporter plasmid TREpp-tk-CAT. The value given represents the concentration of test compound which elicited 50% of the maximum CAT activity.

RARα = biological target: T2, RARα (Homo sapiens, UniProt P10276); assay: RAR Transactivation, RARα (HeLa cells cotransfected with human RAR expression vector and TREpp-tk-CAT reporter); format: cell-based; settings: concentration eliciting 50% of the maximum CAT activity
T2 construct: expressed in transfected cells
T2 sequence (P10276 1-462): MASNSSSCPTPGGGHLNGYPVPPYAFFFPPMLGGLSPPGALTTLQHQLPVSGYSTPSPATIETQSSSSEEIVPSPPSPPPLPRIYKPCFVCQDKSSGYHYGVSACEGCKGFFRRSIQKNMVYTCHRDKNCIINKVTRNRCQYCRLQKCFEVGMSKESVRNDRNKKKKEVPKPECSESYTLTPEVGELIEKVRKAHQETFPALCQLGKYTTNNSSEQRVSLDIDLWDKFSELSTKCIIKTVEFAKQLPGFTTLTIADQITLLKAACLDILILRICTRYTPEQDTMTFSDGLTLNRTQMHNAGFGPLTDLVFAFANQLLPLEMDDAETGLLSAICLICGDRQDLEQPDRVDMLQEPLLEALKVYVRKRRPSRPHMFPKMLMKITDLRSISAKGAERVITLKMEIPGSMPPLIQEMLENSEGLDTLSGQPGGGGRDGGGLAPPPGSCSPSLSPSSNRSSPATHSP
Experimental: as §1

RARβ [1] = biological target: T3, RARβ (Homo sapiens, UniProt P10826); assay: RAR Transactivation, RARβ (HeLa cells cotransfected with human RAR expression vector and TREpp-tk-CAT reporter); format: cell-based; set-up: expressed in transfected cells; settings: concentration eliciting 50% of the maximum CAT activity
T3 sequence (P10826 1-448 isoform P10826-2): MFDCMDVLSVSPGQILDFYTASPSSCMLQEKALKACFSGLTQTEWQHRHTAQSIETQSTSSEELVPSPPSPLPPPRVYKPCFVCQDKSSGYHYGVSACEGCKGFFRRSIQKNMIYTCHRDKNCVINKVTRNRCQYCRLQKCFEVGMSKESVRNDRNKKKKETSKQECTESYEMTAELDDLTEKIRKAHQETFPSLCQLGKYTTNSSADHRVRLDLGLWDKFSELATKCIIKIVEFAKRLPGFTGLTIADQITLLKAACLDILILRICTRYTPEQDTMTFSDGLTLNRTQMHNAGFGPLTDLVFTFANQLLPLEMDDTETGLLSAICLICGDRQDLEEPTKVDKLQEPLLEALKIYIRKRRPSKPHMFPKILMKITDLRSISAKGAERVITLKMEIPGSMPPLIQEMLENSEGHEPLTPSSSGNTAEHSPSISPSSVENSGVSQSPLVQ
Experimental: as §1

[2] = tested on: mouse embryonic teratocarcinoma F9 cells; assay: Differentiation of mouse embryonic teratocarcinoma F9 cells (plasminogen activator secretion); format: cell-based; settings: concentration producing half of the maximum amount of plasminogen activator secreted
Excerpt: Their activities may also be measured in tests of cell transactivation using pretransfected recombinant RAR or RXR receptors (B. A. Bernard et al, Biochemical and Biophysical Research Communication, vol. 186, 977-983 (1992); M. F. Boehm et al, Journal of Medicinal Chemistry, 37, 408-414 (1994)).
This differentiation was characterized by the secretion of the plasminogen activator into the culture medium. The activity of the compound is expressed by the AC50 value, which represents the concentration of test compound which produces half of the maximum amount of plasminogen activator secreted.

RARβ [3] = biological target: T3, RARβ; assay: RAR binding, RARβ (competition binding, nuclear extracts of transfected cos-7 cells); set-up: expressed in transfected cells; host or cells: COS-7 (nuclear extracts); settings: recombinant human receptors, cos-7 nuclear extracts; competition with [H^3]-4-(5,6,7,8-tetrahydro-5,5,8,8-tetramethyl-2-anthracenyl benzoic acid)
Experimental: (c) The binding test was carried out on recombinant human receptors produced by the transfection of cos-7 cells with expression vectors coding for the RAR receptor subtypes.

Q: Which AC50 (RARγ) does the source give for `COc1ccc(C2=Cc3ccc(C(=O)O)cc3OC2)cc1C12CC3CC(CC(C3)C1)C2` [Example 1, 3-[(3-(1-adamantyl)-4-methoxyphenyl)-2H-1-benzopyran]-7-carboxylic acid] here?
A: 4 nM

Q: And the AC50 (RARα)?
A: 8 nM

Q: What about the AC50 (RARβ [1]) of the same molecule?
A: 2 nM

Q: How did the AC50 (RARγ) turn out when `CC1(C)CCC(C)(C)c2cc(C3=Cc4ccc(C(=O)O)cc4OC3)ccc21` [Example 2, 3-[(5,6,7,8-tetrahydro-5,5,8,8-tetramethyl-2-naphthyl)-2-H-1-benzopyran]-7-carboxylic acid] was run?
A: 15 nM

Q: And the AC50 (RARα)?
A: 22 nM

Q: And the AC50 [2]?
A: 58 nM

Q: And the AC50 (RARβ [1])?
A: 2 nM

Q: For `CC(C)(C)c1cc(C2=Cc3ccc(C(=O)O)cc3OC2)cc(C(C)(C)C)c1O` [Example 11, 3-[(3,5-di-tert-butyl-4-hydroxyphenyl)-2-H-1-benzopyran]-7-carboxylic acid], which AC50 (RARγ) is on record?
A: 157 nM

Q: And the AC50 [2]?
A: 320 nM

Q: What about the AC50 (RARβ [1]) of the same molecule?
A: 77 nM

Q: And the Kd (RARβ [3])?
A: 3680 nM

Q: With `O=C(O)c1ccc2c(c1)OCC(c1ccc(O)c(C34CC5CC(CC(C5)C3)C4)c1)=C2` [Example 13, 3-[(3-(1-adamantyl)-4-hydroxphenyl)-2H-1-benzopyran]-7-carboxylic acid] as the molecule, how does the AC50 (RARγ) read?
A: 6 nM

Q: And the AC50 (RARα)?
A: 47 nM

Q: What about the AC50 [2] of the same molecule?
A: 107 nM

Q: What about the AC50 (RARβ [1]) of the same molecule?
A: 20 nM

Q: And the Kd (RARβ [3])?
A: 3300 nM
